Measurements from patent US20170246223A1 (priority 2016, published 2017).

Tests used:
[1] = test system: E. coli; assay: in vitro cytotoxicity screen of drugs co-incubated with E. coli (tumour cell survival, MTS); format: cell-based, E. coli Nissle 1917; details: drug co-incubated with E. coli, bacteria removed, filtrate applied to tumour cells; change relative to reference cytotoxic effect (drug without bacteria)
Protocol: (§1) 1. Bacteria and Drug are mixed in DMEM medium, and co-incubated for 3 h at 37° C. 2. The drug is separated from bacteria using centrifugation and filtration. 3. The filter sterilised DMEM containing the transformed drug is applied to tumour cells in a 96 well plate. 4. Tumour cell viability is evaluated via the MTS assay for end point measurements.
Bioluminescent E. coli was described by us previously and cultured in the presence of […] erythromycin. Listeria welshimeri Serovar 6B SLCC5334 was purchased from ECACC and cultivated at 37° C. in Brain Heart Infusion (BHI) medium. B. breve UCC2003 and Lactococcus lactis (UCC Culture Collection) was routinely grown at 37° C. in reinforced clostridial medium and M17 medium respectively (Oxoid, Basingstoke, UK). All lactobacilli strains were a kind gift of Dr. Cormac Gahan, UCC School of microbiology, and were grown in lactobacillus MRS broth (Beckton Dickinson). The E. coli nitroreductase deletion mutants and parent strains were kindly provided by Dr. Antonio Valle and grown in LB broth/agar with appropriate antibiotics. The strain Δ+A was created by transforming AB502 (streptomycin, kanamycin sensitive derivative of parent strain AB1157) with the plasmid pNZ44 (chloramphenicol resistance) carrying the gene nfsA. The strain Δ+B was created by transforming AB502 with the plasmid pTrc99A (ampicillin resistance) containing the gene nfsB (see below).
Microtitre plates (96-well) were pre-seeded with 4000 cells/well in appropriate medium for each cell line and allowed to attach overnight. The next day, bacteria were cultured to log-phase or stationery phase (Gram-positive) resuspended in PBS and added to 2 mls of DMEM to an OD600mn of 0.1-0.2 for E. coli 0.05 for Lactococcus lactis, and 0.3-0.4 for the rest of the Grand-positives. Each strain was exposed for 2-3 h to drug in a tissue culture incubator. Bacteria were separated from the drug by centrifugation and filter sterilisation using 0.2 μm pore filters (Starsted) after which 200 μl of filtrate was transferred to each well. […] Cytotoxicity was quantified using an MTS staining with the Cell Titre 96 AQueous One solution Cell Proliferation Assay (Promega). The plates were measured and analysed in a Spectra max M2 (Molecular devices) spectrophotometer at 490 nm.

[2] = test system: L. welshimeri; assay: in vitro cytotoxicity screen of drugs co-incubated with L. welshimeri (tumour cell survival, MTS); format: cell-based, Listeria welshimeri Serovar 6B SLCC5334; details: drug co-incubated with L. welshimeri, bacteria removed, filtrate applied to tumour cells; change relative to reference cytotoxic effect (drug without bacteria)
Protocol: as §1
Bioluminescent E. coli was described by us previously and cultured in the presence of […] erythromycin. Listeria welshimeri Serovar 6B SLCC5334 was purchased from ECACC and cultivated at 37° C. in Brain Heart Infusion (BHI) medium. B. breve UCC2003 and Lactococcus lactis (UCC Culture Collection) was routinely grown at 37° C. in reinforced clostridial medium and M17 medium respectively (Oxoid, Basingstoke, UK). All lactobacilli strains were a kind gift of Dr. Cormac Gahan, UCC School of microbiology, and were grown in lactobacillus MRS broth (Beckton Dickinson). […]
Microtitre plates (96-well) were pre-seeded with 4000 cells/well in appropriate medium for each cell line and allowed to attach overnight. […] Cytotoxicity was quantified using an MTS staining with the Cell Titre 96 AQueous One solution Cell Proliferation Assay (Promega). The plates were measured and analysed in a Spectra max M2 (Molecular devices) spectrophotometer at 490 nm.

[3] = test system: CT26 tumours; assay: Subcutaneous flank CT26 tumours in Balb/c mice, bacteria i.t. plus drug i.p., survival; format: in vivo
Protocol: Subcutaneous flank CT26 tumours growing in Balb/c mice were injected i.t with bacteria or PBS vehicle alone. Gemcitabine (60 mg/kg) was injected i.p. five times at three day intervals. FIG. 3A) Tumour volume (%) relative to the first day of gemcitabine injection (day 0) is shown. *P<0.03, **P=0.002 for gemcitabine alone versus gemcitabine+bacteria. […] Data are expressed as mean±SEM of 4 to 8 individual mice per group.
Subcutaneous flank CT26 tumours growing in Balb/c mice were injected i.t with bacteria or PBS vehicle alone. CB1954 (20 mg/kg) was injected i.p. for the duration of the experiment at 3 day intervals. FIG. 4A) Tumour volume (%) relative to the first day of CB1954 injection (day 0) is shown. […] P=0.0374). Data are expressed as mean±SEM of 3-5 individual mice per group.
FIGS. 12A-12D: Tumour therapy via in vivo activation of prodrugs. BALB/c mice bearing subcutaneous CT26 flank tumours colonised by E. coli Nissle 1917 received IP injections of CB1954+PBS, 5-FC+PBS, CB1954+5-FC or PBS three times per week. Tumours were monitored for changes in volume and luminescence (where applicable) from live bacteria on each treatment day. FIG. 12A) The change in bacterial luminescence (relative to day 0) from tumour colonising luminescent E. coli is shown. […] FIG. 12B) Changes in CT26 tumour volume were monitored until the first death in the group determined by a predefined endpoint. FIG. 12C-12D) Survival plot of each group starting from the first day of bacteria/drug administration.
Animals and tumour induction: 6-8 week old female BALB/c mice weighing approximately 18-20 g were kept as previously described. For tumour induction, a 200 μl suspension of 2×10^5 CT26 cells in serum free Dulbecco's Modified Eagle's Medium (DMEM) culture medium were injected subcutaneously into the flank of BALB/c mice. The viability of inoculated cells was determined using the Nucleocounter system (ChemoMetec). Tumour growth was monitored three times per week by caliper measurement and mice were randomly assigned to groups when the tumours reached approximately 100 mm^3 in volume. Mice were culled once tumours reached 1.5×1.5 cm in size (predetermined endpoint).
Bacterial administration to mice: Bacteria were grown overnight in LB medium and in a shaking incubator at 37° C. These bacteria were used to inoculate fresh growth medium and allowed to grow until reaching OD600 0.6. […]
Statistical analysis For biological in vitro and in vivo assays, two-sided, paired student's t test with 95% confidence or Mann Whitney U test were employed to investigate statistical differences, using GraphPad Prism@5.0 or Microsoft Excel 12. […] Statistical significance of survival between groups in murine experiments was determined using the Log-rank (Mantel-Cox) Test. […]

COc1cc([C@@H]2c3cc4c(cc3[C@@H](O[C@@H]3O[C@@H]5CO[C@@H](C)O[C@H]5[C@H](O)[C@H]3O)[C@H]3COC(=O)[C@H]23)OCO4)cc(OC)c1OP(=O)(O)O [Etoposide phosphate]
Cytotoxicity E. coli [1]: Down

CC1=CC(=O)c2ccccc2C1=O [Menadione]
Cytotoxicity E. coli [1]: Down

COc1cccc2c1C(=O)c1c(O)c3c(c(O)c1C2=O)C[C@@](O)(C(=O)CO)C[C@@H]3O[C@H]1C[C@H](N)[C@H](O)[C@H](C)O1 [Doxorubicin]
Cytotoxicity E. coli [1]: Down

Nc1nc(=O)[nH]cc1F [5-fluorocytosine]
Cytotoxicity E. coli [1]: Up

CC(=O)[C@]1(O)Cc2c(O)c3c(c(O)c2[C@@H](O[C@H]2C[C@H](N)[C@H](O)[C@H](C)O2)C1)C(=O)c1ccccc1C3=O [Idarubicin]
Cytotoxicity E. coli [1]: Down

CC1(C)CCC2=C(O1)c1ccccc1C(=O)C2=O [B-Lapachone]
Cytotoxicity E. coli [1]: Down

Nc1nc(F)nc2c1ncn2[C@@H]1O[C@H](COP(=O)(O)O)[C@@H](O)[C@@H]1O [Fludarabine de phosphate]
Cytotoxicity E. coli [1]: Up | Cytotoxicity L. welshimeri [2]: Up

COc1cccc2c1C(=O)c1c(O)c3c(c(O)c1C2=O)C[C@@](O)(C(C)=O)C[C@@H]3O[C@H]1C[C@H](N)[C@H](O)[C@H](C)O1 [Daunorubicin]
Cytotoxicity E. coli [1]: Down

O=C1c2c(O)ccc(O)c2C(=O)c2c(NCCNCCO)ccc(NCCNCCO)c21 [Mitoxantrone]
Cytotoxicity E. coli [1]: Down

Nc1ccn([C@@H]2O[C@H](CO)[C@@H](O)C2(F)F)c(=O)n1 [Gemcitabine]
Cytotoxicity E. coli [1]: Down | median survival post Day 0 ([3]; gemcitabine alone group (PBS i.t.), 60 mg/kg i.p. five times at three day intervals): 28 days | median survival post Day 0 ([3]; gemcitabine+bacteria group, E. coli i.t., gemcitabine 60 mg/kg i.p. five times at three day intervals, P=0.008 vs gemcitabine alone): 17 days

NC(=O)c1cc(N2CC2)c([N+](=O)[O-])cc1[N+](=O)[O-] [CB1954]
Cytotoxicity E. coli [1]: Up | median survival post Day 0 ([3]; CB1954+bacteria group, E. coli i.t., CB1954 20 mg/kg i.p. at 3 day intervals, P=0.0374 vs CB1954 alone): 26 days | median survival post Day 0 ([3]; CB1954 alone group (PBS i.t.), 20 mg/kg i.p. at 3 day intervals): 8 days

C[N+](C)([O-])CCNc1ccc(NCC[N+](C)(C)[O-])c2c1C(=O)c1c(O)ccc(O)c1C2=O [AQ4N]
Cytotoxicity E. coli [1]: Up

O=c1[nH]c(=O)n(C2CCCO2)cc1F (stereo not drawn) [Tegafur]
Cytotoxicity E. coli [1]: Up

Nc1nc(Cl)nc2c1ncn2[C@H]1C[C@H](O)[C@@H](CO)O1 [Cladribine]
Cytotoxicity E. coli [1]: reduced cytotoxic effect and Down

OC[C@H]1O[C@@H](n2cnc3c(S)ncnc32)C[C@@H]1O [6-Mercaptopurine-2′-deoxyriboside]
Cytotoxicity E. coli [1]: Up

Nc1ncnc2c1ncn2[C@@H]1O[C@H](CO)[C@@H](O)[C@@H]1O [Vidarabine]
Cytotoxicity E. coli [1]: Down
